Reference: patent EP4563146A1 (IRBM S.P.A., priority 2023, dated 2025)

Each compound was assayed on ZIKV replicon (assay: ZIKV replication inhibition assay (NanoLuc replicon in Vero cells)). Settings: Zika virus, Vero, 72 h, read-out: ZIKA Cell_Nanoluc.
COc1ncc(-c2ccc(C[n+]3cc([N-]C(=O)Nc4cc(NC(=O)CC5CCCCC5)cc(C(F)(F)F)c4)on3)cc2)c(C)n1 [Example 8] showed an EC50 of 1000 to 20000 nM.
O=C(CC1CCC1)Nc1cc(NC(=O)[N-]c2c[n+](Cc3ccccn3)no2)cc(C(F)(F)F)c1 [Example 54] showed an EC50 of 1000 to 20000 nM.
With O=C(CCOC1CCCC1)Nc1cc(NC(=O)[N-]c2c[n+](Cc3ccccn3)no2)cc(C(F)(F)F)c1 [Example 73] the EC50 was 1000 to 20000 nM.
N[C@H]1CC[C@H](C[n+]2cc([N-]C(=O)Nc3cc(N4CCC(c5ccccc5)C4=O)cc(C(F)(F)F)c3)on2)CC1 (stereo partly drawn) [Example 132, (3-(((1R,4R)-4-Aminocyclohexyl)methyl)-1,2,3-oxadiazol-3-ium-5-yl)((3-(2-oxo-3-phenylpyrrolidin-1-yl)-5-(trifluoromethyl)-phenyl)carbamoyl)amide] showed an EC50 greater than 20000 nM.
With CN1CC(C(=O)Nc2cc(NC(=O)[N-]c3c[n+](Cc4ccccn4)no3)cc(C(F)(F)F)c2)C1 [Example 49] the EC50 was 1000 to 20000 nM.
For O=C(Cn1c(C(F)F)nc2ccccc21)Nc1cc(NC(=O)[N-]c2c[n+](Cc3ccccn3)no2)cc(C(F)(F)F)c1 [Example 65], the EC50 was greater than 20000 nM.
O=C([N-]c1c[n+](C[C@H]2CC[C@H](NC(=O)C(F)(F)F)CC2)no1)Nc1cc(N2CC[C@H](c3ccccc3)C2=O)cc(C(F)(F)F)c1 [Example 145, ((3-((R)-2-Oxo-3-phenylpyrrolidin-1-yl)-5-(trifluoromethyl)phenyl)carbamoyl)(3-(((1R,4R)-4-(2,2,2-trifluoroacetamido)cyclohexyl)methyl)-1,2,3-oxadiazol-3-ium-5-yl)amide] was tested, and the EC50 was 1000 to 20000 nM.
With O=C([N-]c1c[n+](Cc2ccccn2)no1)Nc1cc(NC(=O)c2ccc3c(n2)CCO3)cc(C(F)(F)F)c1 [Example 79] the EC50 was 1000 to 20000 nM.
O=C([N-]c1c[n+](Cc2ccccn2)no1)Nc1cc(NC(=O)C2(Oc3ccc(Cl)cc3)COC2)cc(C(F)(F)F)c1 [Example 83] showed an EC50 of 1000 to 20000 nM.
Compound CN1Cc2cc(C(=O)Nc3cc(NC(=O)[N-]c4c[n+](Cc5ccccn5)no4)cc(C(F)(F)F)c3)sc2C1 [Example 39] has an EC50 of 1000 to 20000 nM.
O=C([N-]c1c[n+](Cc2ccccn2)no1)Nc1cc(NC(=O)C2CCCC3(CCOC3)O2)cc(C(F)(F)F)c1 (centres unmarked) [Example 84] gave an EC50 of 1000 to 20000 nM.
In the case of O=C(CCCCS(=O)(=O)N1CCCCC1)Nc1cc(NC(=O)[N-]c2c[n+](Cc3ccccn3)no2)cc(C(F)(F)F)c1 [Example 82], the EC50 is reported as greater than 20000 nM.
With Cc1ccc(CN2CCC(C(=O)Nc3cc(NC(=O)[N-]c4c[n+](Cc5ccccn5)no4)cc(C(F)(F)F)c3)CC2)o1 [Example 70] the EC50 was greater than 20000 nM.
O=C([N-]c1c[n+](Cc2ccccn2)no1)Nc1cc(NC(=O)c2cnn(Cc3ccccc3)c2)cc(C(F)(F)F)c1 [Example 35] gave an EC50 of 1000 to 20000 nM.
With COc1ncc(-c2ccc(C[n+]3cc([N-]C(=O)Nc4cc(NC(=O)C5CCCC5)cc(C(F)(F)F)c4)on3)cc2)c(C)n1 [Example 18] the EC50 was 100 to 1000 nM.

Same assay, conditions: Zika virus, Vero, 72 h, read-out: ZIKA Cell_Nanoluc, Vero cells with stable ZIKV replicon, 72 h, Nano-Glo readout
COc1ccc(CC(=O)Nc2cc(NC(=O)[N-]c3c[n+](Cc4ccc(-c5cnc(OC)nc5C)cc4)no3)cc(C(F)(F)F)c2)cc1 [Example 16, (3-(4-(2-Methoxy-4-methylpyrimidin-5-yl)benzyl)-1,2,3-oxadiazol-3-ium-5-yl)((3-(2-(4-methoxyphenyl)acetamido)-5-(trifluoromethyl)phenyl)carbamoyl)amide] showed an EC50 of 1000 to 20000 nM.
COc1ncc(-c2ccc(C[n+]3cc([N-]C(=O)Nc4cc(NC(=O)Cc5cccnc5)cc(C(F)(F)F)c4)on3)cc2)c(C)n1 [Example 19, (3-(4-(2-Methoxy-4-methylpyrimidin-5-yl)benzyl)-1,2,3-oxadiazol-3-ium-5-yl)((3-(2-(pyridin-3-yl)acetamido)-5-(trifluoromethyl)phenyl)carbamoyl)amide] gave an EC50 of 1000 to 20000 nM.
O=C([N-]c1c[n+](Cc2ccccn2)no1)Nc1cc(NC(=O)C2CCn3cncc3C2)cc(C(F)(F)F)c1 (centres unmarked) [Example 80, (3-(Pyridin-2-ylmethyl)-1,2,3-oxadiazol-3-ium-5-yl)((3-(5,6,7,8-tetrahydroimidazo [1,5-a]pyridine-7-carboxamido)-5-(trifluoromethyl)phenyl)carbamoyl)amide] gave an EC50 greater than 20000 nM.
O=C([N-]c1c[n+](Cc2ccccn2)no1)Nc1cc(NCCc2ccccc2)cc(C(F)(F)F)c1 [Example 53, ((3-(Phenethylamino)-5-(trifluoromethyl)-phenyl)carbamoyl)(3-(pyridin-2-ylmethyl)-1,2,3-oxadiazol-3-ium-5-yl)amide] was tested, and the EC50 was 1000 to 20000 nM.
In the case of COc1ncc(-c2ccc(C[n+]3cc([N-]C(=O)Nc4cc(NS(=O)(=O)Cc5ccccc5)cc(C(F)(F)F)c4)on3)cc2)c(C)n1 [Example 10, (3-(4-(2-Methoxy-4-methylpyrimidin-5-yl)benzyl)-1,2,3-oxadiazol-3-ium-5-yl)((3-((phenylmethyl)sulfonamido)-5-(trifluoromethyl)phenyl)carbamoyl)amide], the EC50 is reported as 100 to 1000 nM.
Work on O=C([N-]c1c[n+](Cc2ccccn2)no1)Nc1cc(NC(=O)C2CCCc3cn[nH]c32)cc(C(F)(F)F)c1 (centres unmarked) [Example 38, (3-(Pyridin-2-ylmethyl)-1,2,3-oxadiazol-3-ium-5-yl)((3-(4,5,6,7-tetrahydro-1H-indazole-7-carboxamido)-5-(trifluoromethyl)phenyl)carbamoyl)amide] yielded an EC50 of 1000 to 20000 nM.
Compound NCc1ccccc1-c1ccc(C[n+]2cc([N-]C(=O)Nc3cc(NC(=O)Cc4ccccc4)cc(C(F)(F)F)c3)on2)nc1 [Example 5, (3-((5-(2-(Aminomethyl)phenyl)pyridin-2-yl)methyl)-1,2,3-oxadiazol-3-ium-5-yl)((3-(2-phenylacetamido)-5-(trifluoromethyl)phenyl)carbamoyl)amide] has an EC50 of 1000 to 20000 nM.
For Cn1cncc1-c1ccc(C[n+]2cc([N-]C(=O)Nc3cc(NC(=O)Cc4ccccc4)cc(C(F)(F)F)c3)on2)nc1 [Example 6, (3-((5-(1-Methyl-1H-imidazol-5-yl)pyridin-2-yl)methyl)-1,2,3-oxadiazol-3-ium-5-yl)((3-(2-phenylacetamido)-5-(trifluoromethyl)phenyl)carbamoyl)amide], the EC50 was 1000 to 20000 nM.
COC(=O)Cc1ccc(C[n+]2cc([N-]C(=O)Nc3cc(NC(=O)Cc4ccccc4)cc(C(F)(F)F)c3)on2)cc1 [Example 109, (3-(4-(2-Methoxy-2-oxoethyl)benzyl)-1,2,3-oxadiazol-3-ium-5-yl)((3-(2-phenylacetamido)-5-(trifluoromethyl)phenyl)carbamoyl)amide] was tested, and the EC50 was 100 to 1000 nM.
For O=C(Cc1ccc2nc[nH]c2c1)Nc1cc(NC(=O)[N-]c2c[n+](Cc3ccccn3)no2)cc(C(F)(F)F)c1 [Example 124, ((3-(2-(1H-Benzo[d]imidazol-6-yl)acetamido)-5-(trifluoromethyl)phenyl)carbamoyl)(3-(pyridin-2-ylmethyl)-1,2,3-oxadiazol-3-ium-5-yl)amide], the EC50 was greater than 20000 nM.
With C[n+]1cc([N-]C(=O)Nc2cc(NC(=O)Cc3ccccc3)cc(C(F)(F)F)c2)on1 [Example 4, (3-Methyl-1,2,3-oxadiazol-3-ium-5-yl)((3-(2-phenylacetamido)-5-(trifluoromethyl)phenyl)carbamoyl)amide] the EC50 was 1000 to 20000 nM.
COC(=O)c1ccc(C[n+]2cc([N-]C(=O)Nc3cc(NC(=O)Cc4ccccc4)cc(C(F)(F)F)c3)on2)nc1 [Example 113, (3-((5-(Methoxycarbonyl)pyridin-2-yl)methyl)-1,2,3-oxadiazol-3-ium-5-yl)((3-(2-phenylacetamido)-5-(trifluoromethyl)phenyl)carbamoyl)amide] gave an EC50 of 1000 to 20000 nM.
Compound O=C([N-]c1c[n+](Cc2ccccn2)no1)Nc1cc(NC(=O)c2[nH]cc3c2CCC3)cc(C(F)(F)F)c1 [Example 87, (3-(Pyridin-2-ylmethyl)-1,2,3-oxadiazol-3-ium-5-yl)((3-(2,4,5,6-tetrahydrocyclopenta[c]pyrrole-1-carboxamido)-5-(trifluoromethyl)phenyl)-carbamoyl)amide] has an EC50 greater than 20000 nM.
COc1ncc(-c2ccc(C[n+]3cc([N-]C(=O)Nc4cc(N)cc(C(F)(F)F)c4)on3)cc2)c(C)n1 [Example 3, ((3-Amino-5-(trifluoromethyl)phenyl)carbamoyl)(3-(4-(2-methoxy-4-methylpyrimidin-5-yl)benzyl)-1,2,3-oxadiazol-3-ium-5-yl)amide] gave an EC50 of 100 to 1000 nM.
In the case of O=C(Cc1ccccc1)Nc1cc(NC(=O)[N-]c2c[n+](Cc3ccc(CCO)cc3)no2)cc(C(F)(F)F)c1 [Example 111, (3-(4-(2-Hydroxyethyl)benzyl)-1,2,3-oxadiazol-3-ium-5-yl)((3-(2-phenylacetamido)-5-(trifluoromethyl)phenyl)carbamoyl)amide], the EC50 is reported as 100 to 1000 nM.
Work on COC(=O)c1ccc(C[n+]2cc([N-]C(=O)Nc3cc(NC(=O)Cc4ccccc4)cc(C(F)(F)F)c3)on2)cc1 [Example 98, (3-(4-(Methoxycarbonyl)benzyl)-1,2,3-oxadiazol-3-ium-5-yl)((3-(2-phenyl-acetamido)-5-(trifluoromethyl)phenyl)carbamoyl)amide] yielded an EC50 of 1000 to 20000 nM.
Work on C=CCOC(=O)C[n+]1cc([N-]C(=O)Nc2cc(NC(=O)Cc3ccccc3)cc(C(F)(F)F)c2)on1 [Example 97, (3-(2-(Allyloxy)-2-oxoethyl)-1,2,3-oxadiazol-3-ium-5-yl)((3-(2-phenylacetamido)-5-(trifluoromethyl)phenyl)carbamoyl)amide] yielded an EC50 greater than 20000 nM.
In the case of O=C(Cc1cc(NC(=O)[N-]c2c[n+](Cc3ccccn3)no2)cc(C(F)(F)F)c1)NCc1ccccc1 [Example 90, ((3-(2-(Benzylamino)-2-oxoethyl)-5-(trifluoromethyl)phenyl)carbamoyl)(3-(pyridin-2-ylmethyl)-1,2,3-oxadiazol-3-ium-5-yl)amide], the EC50 is reported as 1000 to 20000 nM.
For O=C(Cc1ccccc1)Nc1cc(NC(=O)[N-]c2c[n+](Cc3ccccn3)no2)cc(C(F)(F)F)c1 [Example 7, ((3-(2-Phenylacetamido)-5-(trifluoromethyl)phenyl)carbamoyl)(3-(pyridin-2-ylmethyl)-1,2,3-oxadiazol-3-ium-5-yl)amide], the EC50 was 100 to 1000 nM.
Compound O=C(Cc1ccccc1)Nc1cc(NC(=O)[N-]c2c[n+](C3CCNCC3)no2)cc(C(F)(F)F)c1 [Example 99, ((3-(2-Phenylacetamido)-5-(trifluoromethyl)-phenyl)carbamoyl)(3-(piperidin-4-yl)-1,2,3-oxadiazol-3-ium-5-yl)amide] has an EC50 of 1000 to 20000 nM.
